Measurements reported in ChEMBL document CHEMBL2074181, “Interactions of glycyrrhizin with organic anion transporting polypeptides of rat and human liver” (Hepatol Res, 2003).

Key:
[1] = target: T1, Solute carrier organic anion transporter family member 1B2 (Rattus norvegicus, UniProt Q9QZX8); assay: (§1) TP_TRANSPORTER: inhibition of E1S uptake in Xenopus laevis oocytes; assay type: functional, cell-based, Oocyte
T1 sequence (Q9QZX8 whole entry): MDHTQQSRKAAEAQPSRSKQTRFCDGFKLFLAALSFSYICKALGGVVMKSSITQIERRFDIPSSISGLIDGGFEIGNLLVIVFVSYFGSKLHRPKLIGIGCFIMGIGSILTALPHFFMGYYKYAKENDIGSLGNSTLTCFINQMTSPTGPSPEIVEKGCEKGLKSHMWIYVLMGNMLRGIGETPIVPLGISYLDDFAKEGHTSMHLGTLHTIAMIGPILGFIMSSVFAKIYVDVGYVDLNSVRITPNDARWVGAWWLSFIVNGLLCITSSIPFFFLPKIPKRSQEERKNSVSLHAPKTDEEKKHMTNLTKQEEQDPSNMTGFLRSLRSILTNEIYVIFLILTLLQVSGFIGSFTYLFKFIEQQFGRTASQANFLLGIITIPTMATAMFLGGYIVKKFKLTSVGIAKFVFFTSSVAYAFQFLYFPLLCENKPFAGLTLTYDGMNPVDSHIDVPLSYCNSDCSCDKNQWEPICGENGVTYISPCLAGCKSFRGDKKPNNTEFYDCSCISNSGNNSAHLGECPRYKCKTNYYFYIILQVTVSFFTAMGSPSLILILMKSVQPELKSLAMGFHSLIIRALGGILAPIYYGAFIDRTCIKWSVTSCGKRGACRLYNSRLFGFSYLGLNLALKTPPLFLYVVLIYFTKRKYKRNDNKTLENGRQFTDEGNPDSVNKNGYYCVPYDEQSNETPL

[2] = target: T2, Solute carrier organic anion transporter family member 1B1 (Homo sapiens, UniProt Q9Y6L6); assay: as §1; assay type: functional, cell-based, Oocyte
T2 sequence (Q9Y6L6 whole entry): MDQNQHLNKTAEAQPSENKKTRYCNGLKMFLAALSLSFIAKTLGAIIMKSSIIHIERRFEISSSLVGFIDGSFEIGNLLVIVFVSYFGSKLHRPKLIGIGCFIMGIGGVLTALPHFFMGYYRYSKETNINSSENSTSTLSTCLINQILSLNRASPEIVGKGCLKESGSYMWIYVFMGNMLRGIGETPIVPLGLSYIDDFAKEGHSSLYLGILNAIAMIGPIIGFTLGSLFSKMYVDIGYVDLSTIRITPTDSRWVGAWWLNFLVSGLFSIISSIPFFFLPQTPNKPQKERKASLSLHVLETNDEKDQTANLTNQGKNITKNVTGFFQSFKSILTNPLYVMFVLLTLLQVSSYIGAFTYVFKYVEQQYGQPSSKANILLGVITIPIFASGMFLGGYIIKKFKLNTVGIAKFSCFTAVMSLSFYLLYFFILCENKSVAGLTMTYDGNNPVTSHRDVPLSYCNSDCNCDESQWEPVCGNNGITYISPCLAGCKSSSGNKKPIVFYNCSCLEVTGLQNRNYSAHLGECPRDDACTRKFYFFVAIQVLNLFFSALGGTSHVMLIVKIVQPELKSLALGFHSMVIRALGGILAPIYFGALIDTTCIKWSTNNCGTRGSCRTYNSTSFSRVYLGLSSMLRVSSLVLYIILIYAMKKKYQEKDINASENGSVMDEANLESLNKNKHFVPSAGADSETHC

[3] = target: T3, Solute carrier organic anion transporter family member 1A1 (Rattus norvegicus, UniProt P46720); assay: (§2) TP_TRANSPORTER: inhibition of E1S uptake (E1S: 0.05 uM, GL: 100 uM) in Xenopus laevis oocytes; assay type: functional, cell-based; design: scale not given: the % may be the effect or the level left; conditions: oocyte
T3 sequence (P46720 whole entry): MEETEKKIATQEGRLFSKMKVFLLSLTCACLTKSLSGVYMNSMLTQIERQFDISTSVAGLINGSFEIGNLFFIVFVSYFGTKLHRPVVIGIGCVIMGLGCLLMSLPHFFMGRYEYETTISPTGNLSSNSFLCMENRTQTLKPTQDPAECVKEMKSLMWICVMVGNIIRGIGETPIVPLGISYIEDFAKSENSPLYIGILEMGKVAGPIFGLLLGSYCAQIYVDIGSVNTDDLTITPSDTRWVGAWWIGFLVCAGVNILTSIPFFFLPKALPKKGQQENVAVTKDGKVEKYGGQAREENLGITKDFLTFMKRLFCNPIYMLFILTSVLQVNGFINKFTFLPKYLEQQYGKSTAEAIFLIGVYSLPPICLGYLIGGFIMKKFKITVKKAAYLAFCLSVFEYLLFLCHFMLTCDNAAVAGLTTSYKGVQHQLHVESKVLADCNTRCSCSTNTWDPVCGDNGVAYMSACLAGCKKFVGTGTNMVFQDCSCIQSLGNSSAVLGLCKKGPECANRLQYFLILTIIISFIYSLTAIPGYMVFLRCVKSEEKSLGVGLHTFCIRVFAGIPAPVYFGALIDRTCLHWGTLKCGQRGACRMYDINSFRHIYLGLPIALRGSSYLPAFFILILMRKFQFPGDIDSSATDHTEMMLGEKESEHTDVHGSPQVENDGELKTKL

[4] = target: T4, Solute carrier organic anion transporter family member 1A5 (OATP1A5) (Rattus norvegicus, UniProt O88397); assay: as §2; assay type: functional, cell-based, Oocyte; design: scale not given: the % may be the effect or the level left; conditions: Xenopus laevis oocytes expressing OATP1A5, probe E1S (0.05 uM), read-out: Activity
T4 sequence (O88397 whole entry): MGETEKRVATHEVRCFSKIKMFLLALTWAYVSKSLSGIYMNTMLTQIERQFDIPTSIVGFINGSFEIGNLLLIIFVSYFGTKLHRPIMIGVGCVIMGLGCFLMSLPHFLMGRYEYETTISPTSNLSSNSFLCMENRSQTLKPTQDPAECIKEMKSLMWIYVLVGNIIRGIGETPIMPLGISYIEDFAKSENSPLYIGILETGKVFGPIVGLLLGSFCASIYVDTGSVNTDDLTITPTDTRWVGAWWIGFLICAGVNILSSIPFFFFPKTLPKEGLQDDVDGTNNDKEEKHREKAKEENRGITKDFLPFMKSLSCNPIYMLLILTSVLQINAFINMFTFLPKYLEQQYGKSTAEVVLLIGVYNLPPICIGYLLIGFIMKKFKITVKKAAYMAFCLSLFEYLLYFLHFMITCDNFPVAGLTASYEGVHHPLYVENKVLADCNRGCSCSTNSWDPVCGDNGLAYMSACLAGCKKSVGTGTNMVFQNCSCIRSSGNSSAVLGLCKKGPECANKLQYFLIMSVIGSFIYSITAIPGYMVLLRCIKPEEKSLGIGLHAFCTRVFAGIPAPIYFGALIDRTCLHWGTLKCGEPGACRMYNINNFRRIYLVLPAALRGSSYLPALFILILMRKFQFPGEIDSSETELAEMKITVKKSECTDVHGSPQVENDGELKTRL

[5] = target: T5, Solute carrier organic anion transporter family member 1B3 (OATP1B3) (Homo sapiens, UniProt Q9NPD5); assay: as §2; assay type: functional, cell-based, Oocyte; design: scale not given: the % may be the effect or the level left; conditions: Xenopus laevis oocytes expressing OATP1B3, probe E1S (0.05 uM), read-out: Activity
T5 sequence (Q9NPD5 whole entry): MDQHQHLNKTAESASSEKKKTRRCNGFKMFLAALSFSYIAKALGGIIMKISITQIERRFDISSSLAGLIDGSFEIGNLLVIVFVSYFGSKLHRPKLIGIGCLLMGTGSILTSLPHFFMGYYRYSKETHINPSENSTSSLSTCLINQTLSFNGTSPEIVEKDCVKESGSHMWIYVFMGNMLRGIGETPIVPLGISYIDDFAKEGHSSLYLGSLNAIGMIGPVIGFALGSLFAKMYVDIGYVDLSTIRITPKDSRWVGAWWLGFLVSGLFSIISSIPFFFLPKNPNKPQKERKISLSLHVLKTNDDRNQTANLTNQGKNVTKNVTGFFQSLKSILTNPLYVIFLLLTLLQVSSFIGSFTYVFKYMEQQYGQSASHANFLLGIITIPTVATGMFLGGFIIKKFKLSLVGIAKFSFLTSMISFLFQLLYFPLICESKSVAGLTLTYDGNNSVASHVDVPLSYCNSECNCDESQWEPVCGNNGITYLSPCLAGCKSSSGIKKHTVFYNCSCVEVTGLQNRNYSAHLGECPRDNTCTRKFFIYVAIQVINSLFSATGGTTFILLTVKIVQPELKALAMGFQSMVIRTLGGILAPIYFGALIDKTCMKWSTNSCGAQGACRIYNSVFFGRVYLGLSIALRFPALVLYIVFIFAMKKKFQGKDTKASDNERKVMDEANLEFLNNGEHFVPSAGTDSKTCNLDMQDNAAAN

[6] = target: T6, Solute carrier organic anion transporter family member 1A4 (OATP1A4) (Rattus norvegicus, UniProt O35913); assay: as §2; assay type: functional, cell-based, Oocyte; design: scale not given: the % may be the effect or the level left; conditions: Xenopus laevis oocytes expressing OATP1A4, probe E1S (0.05 uM), read-out: Activity
T6 sequence (O35913 whole entry): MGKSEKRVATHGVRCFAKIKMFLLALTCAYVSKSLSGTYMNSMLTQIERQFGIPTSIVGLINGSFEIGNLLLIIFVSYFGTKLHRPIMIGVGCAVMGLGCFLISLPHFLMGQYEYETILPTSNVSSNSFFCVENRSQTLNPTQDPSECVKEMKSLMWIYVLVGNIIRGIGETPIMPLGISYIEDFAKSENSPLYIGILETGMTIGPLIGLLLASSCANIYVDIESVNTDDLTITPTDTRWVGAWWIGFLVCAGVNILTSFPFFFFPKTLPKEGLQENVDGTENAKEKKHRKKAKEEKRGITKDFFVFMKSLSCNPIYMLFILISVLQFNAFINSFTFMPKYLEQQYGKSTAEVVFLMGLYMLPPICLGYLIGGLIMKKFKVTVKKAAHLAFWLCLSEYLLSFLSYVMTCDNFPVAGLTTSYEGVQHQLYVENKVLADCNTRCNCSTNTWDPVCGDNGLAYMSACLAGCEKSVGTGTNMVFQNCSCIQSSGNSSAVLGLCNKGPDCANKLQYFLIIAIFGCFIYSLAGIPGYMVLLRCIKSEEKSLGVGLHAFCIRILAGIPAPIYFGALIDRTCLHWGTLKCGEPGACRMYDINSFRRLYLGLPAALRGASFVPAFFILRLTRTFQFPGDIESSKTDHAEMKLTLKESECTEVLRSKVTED

[7] = target: T7, Solute carrier organic anion transporter family member 1B3 (Homo sapiens, UniProt Q9NPD5); assay: TP_TRANSPORTER: inhibition of BSP uptake in Xenopus laevis oocytes; assay type: functional, cell-based, Oocyte
T7 sequence (Q9NPD5 whole entry): T5 sequence (Q9NPD5 whole entry)

[8] = target: T8, Solute carrier organic anion transporter family member 2B1 (Homo sapiens, UniProt O94956); assay: TP_TRANSPORTER: inhibition of E1S uptake (E1S: 0.05 uM, GL: 100 uM) of Glycyrrhizic acid at a concentration of 100 u M in Xenopus laevis oocytes; assay type: functional, cell-based; conditions: oocyte
T8 sequence (O94956 whole entry): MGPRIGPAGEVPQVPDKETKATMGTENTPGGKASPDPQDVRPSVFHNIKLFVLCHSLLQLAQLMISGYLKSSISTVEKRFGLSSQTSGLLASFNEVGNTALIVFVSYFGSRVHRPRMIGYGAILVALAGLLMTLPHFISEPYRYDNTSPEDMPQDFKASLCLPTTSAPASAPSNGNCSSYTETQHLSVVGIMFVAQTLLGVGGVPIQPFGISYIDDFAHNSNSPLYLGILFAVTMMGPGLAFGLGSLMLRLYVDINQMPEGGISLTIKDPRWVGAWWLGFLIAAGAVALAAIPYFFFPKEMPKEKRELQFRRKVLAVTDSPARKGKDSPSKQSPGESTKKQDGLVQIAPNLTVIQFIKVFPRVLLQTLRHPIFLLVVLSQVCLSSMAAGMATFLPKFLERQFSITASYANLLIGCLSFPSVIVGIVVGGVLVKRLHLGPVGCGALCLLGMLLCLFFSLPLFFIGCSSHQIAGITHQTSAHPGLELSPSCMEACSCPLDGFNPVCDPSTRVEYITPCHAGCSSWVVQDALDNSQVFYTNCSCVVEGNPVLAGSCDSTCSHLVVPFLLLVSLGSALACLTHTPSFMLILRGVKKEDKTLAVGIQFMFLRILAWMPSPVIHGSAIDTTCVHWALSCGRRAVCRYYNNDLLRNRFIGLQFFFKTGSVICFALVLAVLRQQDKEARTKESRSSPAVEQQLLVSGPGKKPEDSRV

[9] = target: T9, Solute carrier organic anion transporter family member 1A2 (Homo sapiens, UniProt P46721); assay: TP_TRANSPORTER: inhibition of E1S uptake (E1S: 0.05 uM, GL: 100 uM) by Glycyrrhizic acid at a concentration of 100 u M in Xenopus laevis oocytes; assay type: functional, cell-based; conditions: oocyte
T9 sequence (P46721 whole entry): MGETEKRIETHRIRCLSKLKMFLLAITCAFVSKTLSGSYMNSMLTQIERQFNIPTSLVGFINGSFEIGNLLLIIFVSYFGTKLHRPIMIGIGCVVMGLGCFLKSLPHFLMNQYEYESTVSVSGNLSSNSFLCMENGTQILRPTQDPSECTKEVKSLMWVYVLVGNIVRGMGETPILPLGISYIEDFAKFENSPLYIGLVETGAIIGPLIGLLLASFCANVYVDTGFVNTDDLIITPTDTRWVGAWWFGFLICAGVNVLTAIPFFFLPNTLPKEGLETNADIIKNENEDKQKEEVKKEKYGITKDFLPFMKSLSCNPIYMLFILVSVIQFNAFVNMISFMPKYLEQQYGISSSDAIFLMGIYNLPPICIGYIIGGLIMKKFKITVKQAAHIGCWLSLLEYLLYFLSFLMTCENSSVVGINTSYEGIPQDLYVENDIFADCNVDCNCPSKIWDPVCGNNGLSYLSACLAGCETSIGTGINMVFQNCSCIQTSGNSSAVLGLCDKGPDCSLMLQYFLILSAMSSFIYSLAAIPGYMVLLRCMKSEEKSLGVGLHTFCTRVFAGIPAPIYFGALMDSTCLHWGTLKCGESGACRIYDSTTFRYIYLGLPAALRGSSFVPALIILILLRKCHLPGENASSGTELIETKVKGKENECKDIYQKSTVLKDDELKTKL

- Ki [1]: 6.1 µM
- Ki [2]: 15.9 µM
- Activity [3]: 52%
- activity at 100 µM [4]: 51%
- activity at 100 µM [5]: 0%
- activity at 100 µM [6]: 47%
- Ki [7]: 12.5 µM
- Activity [8]: is not an inhibitor [-]
- Activity [9]: is not an inhibitor [-]
SMILES: CC1(C)[C@@H](O[C@H]2O[C@H](C(=O)O)[C@@H](O)[C@H](O)[C@H]2O[C@@H]2O[C@H](C(=O)O)[C@@H](O)[C@H](O)[C@H]2O)CC[C@]2(C)[C@H]3C(=O)C=C4[C@@H]5C[C@@](C)(C(=O)O)CC[C@]5(C)CC[C@@]4(C)[C@]3(C)CC[C@@H]12 [GLYCYRRHIZIN]
